# Measured values published in patent publication US10010576B2, “Method of treatment” (Hexima Limited, priority 2014, dated 2018).
# Experiments:
# [1] = system: Human monocytic lymphoma (U937) cells; assay type: cell-based
# Experimental: Human monocytic lymphoma (U937) cells are cultured in RPMI-1640 medium. All culture media are supplemented with 5-10% v/v fetal calf serum, 100 U/ml of penicillin, and 100 μg/ml of streptomycin. Cell lines are cultured at 37° C. in a humidified atmosphere containing 5% v/v CO2. Adherent cell lines are detached from the flask by adding a mixture containing 0.25% v/v trypsin and […] EDTA. A flow cytometry-based propidium iodide (PI) uptake assay is performed to analyze the ability of plant defensins to permeabilize U937 cells (essentially as described in Poon et al, 2014). Briefly, cells are suspended to 1×10^6 cells/ml in 0.1% v/v BSA/RPMI-1640 and incubated with plant defensins (10 μM) at 37° C. for 30 min Samples are added to PBS containing a final concentration of 1 μg/ml PI and placed on ice. Samples are then analyzed immediately using the BD FACSCanto II Flow Cytometer and BD FACSDiva software v6.1.1. The resultant flow cytometry data is analyzed using FlowJo software v8.8.6. Cells are gated appropriately based on forward scatter and side scatter and cell permeabilization is defined by PI-positive staining.
# [2] = system: clinical isolates of T. rubrum; experiment: Cell survival assay for clinical isolates of T. rubrum (plating after incubation); assay type: cell-based, Trichophyton rubrum; conditions: incubated with 100 µg/mL HXL008 for 72 h, plated on Sabouraud dextrose agar, 5 days at 30° C.
# Experimental: After incubation for 72 h, the media from wells containing clinical isolates of T. rubrum incubated with 100 […] HXL008 was plated onto fresh Sabouraud dextrose agar. Plates were incubated at 30° C. for 5 days to allow colonies to develop before being photographed.
# Trichophyton rubrum [3] = experiment: Inhibition of the growth of Trichophyton rubrum over 28 days; assay type: cell-based
# Experimental: The inhibitory effect of HXL008 on the growth of Trichophyton rubrum (obtained from the National Mycology Reference Centre, South Australia Pathology at the Women's and Children's Hospital, Adelaide, Australia) was monitored over 28 days.
# Spores of T. rubrum, are isolated from sporulating fungus growing on ½ strength Sabouraud dextrose agar. Spores are removed from the plates by the addition of ½ strength potato dextrose broth (PDB). Spore and cell concentrations are measured using a hemocytometer.
# Spores were diluted to a concentration of 5×10^4 spores/mL in ½ PBD (2 mL) containing 0, 10 or 50 μg/mL HXL008. Cultures are incubated at 30 C without shaking. After 24 h, 100 μL of each culture is extracted and plated onto ½ SDA plates. An additional 100 uL of ½ PDB is then added containing either 0, 20 or 100 μg of HXL008. SDA plates are then incubated at 30 C for 5 days. This process is repeated every 24 h for 28 days. After 15 days, the culture containing no HXL008 becomes too thick to pipette and is no longer used in the assay.
# T. interdigitale = experiment: Antifungal growth inhibition assay in 96 well microtitre plates (A595); assay type: cell-based, Trichophyton interdigitale
# Experimental: (§1) The inhibitory effects of the plant defensins on the growth of Trichophyton rubrum, T. interdigitale, Microsporum fulvum and C. albicans (obtained from the National Mycology Reference Centre, South Australia Pathology at the Women's and Children's Hospital, Adelaide, Australia) are measured essentially as described by Broekaert et al. (1990) FEMS Microbiol Lett 69:55-59. Spores of T. rubrum, T. interdigitale and M. fulvum are isolated from sporulating fungus growing on 1⁄2 strength Sabouraud dextrose agar (SDA). Spores were removed from the plates by the addition of 1⁄2 strength potato dextrose broth (PDB). C. albicans cells are grown in Yeast Peptone Broth (YPD) for 16 h. Spore and cell concentrations are measured using a hemocytometer. Antifungal assays are conducted in 96 well microtitre plates essentially as herein described. Wells are loaded with 20 μm L of filter sterilized (0.22 μm syringe filter, Millipore) defensin (10× stock for each final concentration) or water and 80 μm L of 5×10^4 spores/mL (T. rubrum, T. interdigitale, M. fulvum) or 5,000 cells/mL (C. albicans) in 1⁄2 strength PDB. The plates are incubated at 30° C. Fungal growth is assayed by measuring optical density at 595 nm ([…]) using a microtitre plate reader (SpectraMax Pro M2; Molecular Devices. Growth is allowed to proceed until the optical density (OD) of the fungus in the absence of any test defensin reached an OD of 0.2. Each test is performed in duplicate.
# Microsporum fulvum = experiment: as above; assay type: cell-based
# Experimental: as §1
# Trichophyton rubrum [4] = experiment: as above; assay type: cell-based
# Experimental: as §1
# C. albicans = experiment: as above; assay type: cell-based, Candida albicans
# Experimental: as §1
# [5] = system: Trichophyton rubrum, T. interdigitale, Microsporum fulvum and C. albicans; experiment: Inhibition assays, summary across the range of fungal pathogens; assay type: cell-based; conditions: summary of Table 3
# Experimental: as §1
# Escherichia coli = experiment: Inhibition of the growth of Escherichia coli; assay type: cell-based; conditions: 0.1625 μM to 10 μM, 18 hours at 37° C., OD595
# Experimental: A single E. coli colony was used to inoculate 5 ml of Luria-Bertani media and grown overnight at 37° C. The following day, the optical density of the culture was measured and the E. coli diluted to an optical density at 600 nm (OD600) of 0.01 in Mueller-Hinton Broth. Diluted E. coli were added to 96-well plates with defensins at concentrations of 10 μM, 5 μM, 2.5 μM, 1.25 μM, 0.625 μM, 0.3125 μM or 0.1625 μM. Plates were read at OD595 to obtain time zero data points. Plates were incubated at 37° C. for 18 hours before reading again at OD595 to assess the amount of E. coli growth.
# [6] = Penetration through human nails (nail adapter, wetted cotton bud receptor, RP-HPLC); assay type: in vitro ADME
# Experimental: Penetration of NaD1 through human nails was measured according to the method of Hui et al. (2002) J Pharm Sci 91(1):189-195. Human toenails were obtained from ScienceCare (USA) and washed with phosphate buffered saline (details, PBS) before being placed on a kimwipe that had been soaked in PBS for 3 h to rehydrate the nail. […]
# The cotton bud in contact with the underside of the nail was removed after 24 h and every 24 h following. Protein that had passed through the nail was recovered from the cotton bud by washing twice with 500 μL of 0.1% v/v trifluoroacetic acid. Recovered protein was quantified using RP-HPLC.
Substance,Cells permeabilized (PI-positive) [1],Surviving colonies on agar plates [2],"Visible growth of T. rubrum in culture (Trichophyton rubrum [3]; 10 μg/mL or 50 μg/mL, over the duration of the assay (28 days))","T. rubrum cells killed (Trichophyton rubrum [3]; 50 μg/mL, within 24 h)",T. rubrum cells dead (Trichophyton rubrum [3]; after 20 days of treatment),"Surviving colonies per plate (Trichophyton rubrum [3]; after 20 days of treatment, 100 μL of culture plated)",IC50 against T. interdigitale (T. interdigitale),IC50 against M. fulvum (Microsporum fulvum),IC50 against T. rubrum (Trichophyton rubrum [4]),IC50 against C. albicans (C. albicans),Antifungal activity across the range of fungal pathogens [5],Inhibition of growth of E. coli (Escherichia coli),Nail penetration [6]
"HXL008: Class I plant defensin from Picramnia pentandra, SEQ ID NO:1 (KVCTKPSKFFKGLCGTDGACTTACRKEGLHSGYCQLKGFLNSVCVCRKHC; HXL008 Picramnia pentandra)",less than 2%,1-3 colonies,did not display any visible growth,more than 80%,more than 99.5%,≤ 1 colony,3.5 µg/mL,7 µg/mL,3 µg/mL,20 µg/mL,the most effective plant defensins across the range of fungal pathogens,did not inhibit growth of E. coli at the concentrations tested,able to penetrate nails faster and more effectively than the active ingredients of current topical onychomycosis therapies
"HXL004: Class I plant defensin from Nicotiana benthamiana, SEQ ID NO:7 (Table 1) (RTCESQSHRFKGLCFSRSNCASVCHTEGFNGGHCRGFRRRCFCTRHC; HXL004 Nicotiana benthamiana)",13%,,,,,,19 µg/mL,12 µg/mL,27.5 µg/mL,20 µg/mL,intermediate activity,inhibited the growth of E. coli in a concentration dependent manner,able to penetrate nails faster and more effectively than the active ingredients of current topical onychomycosis therapies
"LL37: human antimicrobial peptide used as a control (LLGDFFRKSKEKIGKEFKRIVQRIKDFLRNLVPRTES; Antibacterial peptide LL-37; UniProt P49913 134-170, looked up) [reference compound]",,,,,,,,,,,,inhibited the growth of E. coli in a concentration dependent manner,
"NaD1: Solanaceous Class II plant defensin from Nicotiana alata, SEQ ID NO:18 (RECKTESNTFPGICITKPPCRKACISEKFTDGHCSKILRRCLCTKPC; NaD1 Nicotiana alata)",33%,,,,,,10 µg/mL,5.3 µg/mL,8 µg/mL,20 µg/mL,,did not inhibit growth of E. coli at the concentrations tested,able to penetrate nails faster and more effectively than the active ingredients of current topical onychomycosis therapies
